Values after ≈ are worked out from the molar mass of the structure shown.
Legend:
[1] = FRAP (Ferric Reducing Antioxidant Power) assay; format: biochemical; conditions: for FRAP-TEAC100: Trolox Equivalent Antioxidant Capacity vs 100 µM solution of the substance, from FRAP assay; for FRAP Assay (%) at 100 µM / FRAP Assay (%) at 200 µM: 30 min, 593 nm
Protocol: The assay was carried out according to the method of Benzie et al. with slight modifications, in a 96-well microplate. FRAP reagent was prepared by mixing 10 mL of 300 mM acetate buffer with 1 mL of 10 mM 2,4,6-tripyridyl-S-triazine (TPTZ) in HCl 40 mM and 1mL of FeCl3·6H2O 20 mM. Firstly, 190 µL of the FRAP reagent were added to all wells of the 96-well plate, followed by the addition to the well of 10 µL of the test compounds dissolved in Ethanol to reach the final concentrations assayed (0, 5, 10, 20, 50, 100, 150, 200 µM). After 30 min incubation in the dark, the absorbance was read at 593 nm. Trolox was used as assay control. Three different assays were carried out by quadruplicate for each compound.

[2] = Cytotoxicity in SH-SY5Y cells (MTT); format: cell-based; conditions: human, SH-SY5Y neuronal cells, concentration reducing cell viability to 50% of control
Protocol: So, to study the neuroprotectant potential of β-diketones in the SH-SY5Y cell line, we firstly need to determine their cytotoxicity in the same cellular model. […] In addition to that, within each series, the introduction of a second fluorine atom in the left-hand side phenyl ring decreases also the cytotoxicity.
SH-SY5Y cells were seeded into 96-well plates at a density of 5 × 10^3 cells/well and grown in the incubator for 24 h. All compounds tested were dissolved and eventually further diluted in dimethylsulfoxide (DMSO). After overnight incubation, the cells were treated with different test concentrations (5, 10, 20, 50, 100, 150, 200 µM) in a final volume of 200 µL with four replicates each. […] Cell proliferation or viability was measured using the 3-(4,5-dimethylthiazol-2-yl)-2,5-diphenyl tetrazolium bromide (MTT) assay. After 24 h, 20 µL of MTT (5 mg/mL) was added to each well and the plate was incubated at 37 °C in the dark for 2 h. Supernatants were removed and the formazan crystals were solubilized in DMSO (200 µL/well), under 10 min shaking at room temperature. The reduction of MTT was quantified by absorbance at 570 nm Varioskan microplate reader (Thermo Fisher Scientific, Vantaa, Finland). Effects of the test compounds on cell viability were calculated using cells treated with vehicle as control. The data were subjected to linear regression analysis and the regression lines were plotted for the best fit. The IC50 (inhibition of cell viability) concentrations were calculated using the respective dose-response curves.

[3] = ABTS radical scavenging assay; format: biochemical; conditions: for IC50: 30 min incubation, EtOH, absorbance at 734 nm; for ABTS-TEAC100: Trolox Equivalent Antioxidant Capacity vs 100 µM solution of the substance, from ABTS assay
Protocol: ABTS^+ radical was produced by reacting 2,2′-azino-bis-3-ethylbenzthiazoline-6-sulphonic acid (ABTS) 7 mM with K2S2O8 2.45 mM, both reactants dissolved in water, and at the volume ratio of 1:1. The mixture was stored in the dark at room temperature for 16 h. The ABTS^+ solution was diluted to give an absorbance of 0.750 ± 0.025 at 734 nm in EtOH. All the compounds tested were dissolved in EtOH. 150 µL of each compound solution was added to the wells of the 96-well plate, followed by the addition of 50 µL of the ABTS^+ radical solution. Final compound concentrations tested were 0, 5, 10, 20, 50, 100, 150, 200 µM. The absorbance change at 734 nm was recorded after 30 min incubation in the dark, and the percentage of radical scavenging was calculated for each concentration relative to a blank containing no scavenger. The degree of decolorization was calculated as the percentage reduction of absorbance. The ABTS^+ radical scavenging activity was calculated as follows: Percentage ABTS^+ radical scavenging activity = {1 − [As/Ac]} × 100(1) where As is the absorbance of the ABTS^+ radical solution containing samples and Ac the absorbance of the control solution without antioxidant. The percentages of ABTS^+ radical reduced were plotted against compound concentration. Trolox was used as a reference antioxidant. All the assays were carried out three times by quadruplicate for each compound.

SH-SY5Y cells [4] = conditions: read-out: H2O2 lethal dose (EC50; LD50), 24 h incubation, cell viability 50% of the control
Protocol: To test our work hypothesis, neuroprotection studies were carried out with β-diketones 6b and 7b in the SH-SY5Y cell line under oxidative stress conditions.

SH-SY5Y cells [5] = assay: Mitochondrial membrane potential by flow cytometry (JC-1) in SH-SY5Y cells under H2O2; format: cell-based, human; conditions: 400 µM H2O2, no compound
Protocol: To confirm this MMP recovery results, flow cytometry experiments were carried out with compound 7b and SH-SY5Y cells. Cells were treated with 7b for 24 h and then were exposed to 400 µM H2O2 for 4 h. JC-1 was used as fluorescence indicator of MMP state. In flow cytometry studies of MMP, JC-1 is excited at 488 nm wavelength. Both JC-1 aggregates and monomers show green fluorescence (peak emission at 527 nm) measured in the FL1 channel. […] Thus, healthy non-apoptotic cells are detected in both FL1 and FL2 channels, while cells with disrupted mitochondrial function show fluorescence in FL1 channel but reduced FL2 intensity. […] From these flow cytometry experiments, we can confirm that after compound 7b treatment there is a significant MMP recovery in SH-SY5Y cells under oxidative stress pressure.
For MMP flow cytometry studies, 10^5 SH-SY5Y cells were seeded in 6 well plates. After 24 h, cells were treated with test compound and incubated for other 24 h. After the treatment period, cells were exposed to H2O2 for 4 h. Then, cells were washed twice with Hanks buffer and stained with 5 µM JC-1 in culture media in dark, in a CO2 incubator at 37 °C for 20 min. After the staining period, cells were washed three times with Hanks buffer, collected and resuspended in 500 µL culture media. Data were obtained and analyzed using an Accuri C6 flow cytometer (BD Biosciences, Ann Arbour, MI, USA). […]

SH-SY5Y cells [6] = assay: Mitochondrial membrane potential (JC-1, microplate reader) in SH-SY5Y cells under H2O2; format: cell-based, human; conditions: SH-SY5Y exposed to 200 µM H2O2 for 24 h, no compound
Protocol: To know whether β-diketones 6b and 7b will protect the mitochondrial membrane from depolarization under oxidative stress conditions, MMP experiments were carried out with the cationic dye JC-1 (5,5′,6,6′-tetrachloro-1,1′,3,3′-tetraethylbenzimi-dazolylcarbocyanine iodide). JC-1 enters selectively into mitochondria and reversibly change color from red to green as the membrane potential decrease. In healthy cells, JC-1 forms red fluorescent J-aggregates while in apoptotic cells with low MMP, JC-1 remains as monomers with green fluorescence. The ratio of J-aggregates to J-monomers is an indication of healthy non-apoptotic cells.
The fluorescent dye 5,5′,6,6′-tetrachloro-1,1′,3,3′-tetraethylbenzimidazolylcarbocyanine iodide (JC-1) was used for measuring MMP [111]. A decrease in fluorescence intensity represents mitochondrial membrane depolarization. For fluorescence ratio detection under oxidative stress conditions, 96 well plates were seeded with 3 × 10^3 SH-SY5Y cells and after 24 h incubation they were treated with test compound and left out for 24 h. Then, cells were exposed to different H2O2 concentrations for 24 h. After the incubation period, cells were washed twice with Hanks buffer and then stained with 5 µM JC-1 in culture media in dark, in a CO2 incubator at 37 °C for 20 min. At the end of the dye incubation period, cells were washed three times with Hanks buffer and 200 µL of fresh buffer was added. Cells were analyzed with a Varioskan microplate reader. J-aggregates red fluorescence intensity was measured at 535 nm excitation and 595 nm emission wavelength, while excitation at 485 nm and emission 535 nm wavelength was used for J-monomers green fluorescence. Results were expressed as the ratio of fluorescence intensity of J-aggregates to J-monomers. […] JC-1 aggregates show red fluorescence (peak emission at 590 nm) measured in the FL2 channel. Thus, healthy non-apoptotic cells are detected in both FL1 and FL2 channels, while cells with disrupted mitochondrial function show fluorescence in FL1 channel but reduced FL2 intensity.

SH-SY5Y cells [7] = assay: SH-SY5Y neuroprotection assay against H2O2 (MTT); format: cell-based, human; conditions: compound 5-50 µM for 24 h, then 200 µM H2O2 for 24 h
Protocol: For neuroprotection experiments, SH-SY5Y cells were treated with test compound at different concentrations (5, 10, 20, 30, 40, and 50 µM) for 24 h. After the incubation period, cells were exposed to H2O2 200 µM for 24 h. At the end of the treatment, cell viability was measure with MTT.
Compound neuroprotection under H2O2-induced oxidative stress was assessed by MTT assay. Briefly, SH-SY5Y were seeded into 96-well plates at a density of 3 × 10^3 cells/well and grown in the incubator for 24 h. Cells were pretreated for 24 h with different compound concentrations (5, 10, 20, 30, 40, 50 µM). After the treatment period, cells were exposed to 200 µM H2O2 for 24 h. Cell viability was measured with MTT following the same procedure described above. Cell viability was expressed as the percentage of the control value (cells without treatment with H2O2).

[8] = Kinetic solubility by UV spectrometry in 10 mM PBS; format: physicochemical; conditions: 10 mM phosphate buffered saline, aqueous buffer, kinetic from dmso stock
Protocol: Among the most important physicochemical parameters in drug-discovery, solubility and chemical stability in aqueous media are the determinants for non-toxic and brain-permeable drug-like compounds with good bioavailability. So, compounds with good aqueous solubility are the best candidates for drug-discovery progression. […] The assays were performed at room temperature, in 10 mM Phosphate Buffered Saline (PBS) from compound stocks in DMSO at 20 mM concentration.
A modified protocol was used from that described by Hoelke et al. for the determination of the kinetic solubility from DMSO compound solutions. A compound calibration curve (compound concentration vs. UV absorption) was prepared on a 48 well plate for each compound with concentrations in the range of 10 µM to […]. Each compound dilution was carried out by pipetting defined volumes of a 20 mM stock compound solution in DMSO into the wells and adding PBS 10 mM to reach a final volume of 500 µL/well. The final amount of DMSO per well was 2%. For the lower compound concentrations, an additional volume of DMSO was added into each well to reach the 2% of DMSO. Then, 200 µL of each dilution was transferred to a new 96 well plate for the measurement of the UV-spectra. One well in each row was left without compound as a blank and its UV absorbance was used as an offset correction. The experiments were carried out by duplicate.
(§1) In parallel compound saturation solutions were obtained and filtered from 20 mM compound stock in DMSO. So, 10 µL of 20 mM stock solution were dispensed to 190 µL of PBS 10 mM. The solutions were mixed, shaken in a microplate shaker for two hours, and then 160 µL of each solution were filtered and transferred to a new well plate for UV absorption measure. The compound stability in PBS 10 mM was determined at 24, 48 and 72 h with solutions prepared as those for the compound calibration curve.
Measurement of the UV-spectra was performed using a Varioskan microplate reader and spectra were taken in the range of 270–600 nm. Spectral bandwidth was set to 5 nm and the data pint interval was 10 nm. […]

[9] = Chemical stability in 10 mM PBS; format: physicochemical; conditions: 6b, 7b at 400 µM, curcumin at 50 µM
Protocol: It is also important to know compound integrity at those concentrations used in biological assays, and for that, the chemical stability was determined in 10 mM PBS after 6 h, 24 h and 48 h.
as §1

[10] = DPPH radical scavenging assay; format: biochemical; conditions: antioxidant concentration that decreases initial DPPH^• concentration by 50%; 30 min, 517 nm
Protocol: The assay was performed in a 96-well microplate. A 0.2 mM solution of 2,2-diphenyl-1-picryl-hydrazyl-hydrate (DPPH) in ethanol was prepared. All the compounds tested were dissolved in EtOH. Firstly, 150 µL of each compound solution was added to the wells of the 96-well plate, followed by the addition of 50 µL of the DPPH solution. Final compound concentrations tested were 0, 5, 10, 20, 50, 100, 150, 200 µM. The change in absorbance at 517 nm was measured after 30 min incubation in the dark. The free radical scavenging activity was calculated as inhibition using the following Equation (2): Percentage DPPH radical scavenging activity = {1 − [As/Ac]} × 100(2) where As is the absorbance of the DPPH solution containing samples and Ac the absorbance of the control solution without antioxidant but with DPPH. The percentages of DPPH reduced were plotted against compound concentration. The experiment was also conducted using Trolox as reference antioxidant. Assays were performed three times by quadruplicate for each compound.

| Structure (SMILES) | FRAP-TEAC100 [1] | FRAP Assay (%) at 100 µM [1] [%] | FRAP Assay (%) at 200 µM [1] [%] | melting point [°C] | IC50 at 24 h [2] [µM] | IC50 [3] [µM] | ABTS-TEAC100 [3] | EC50 (SH-SY5Y cells [4]) [µM] | Increase in the FLA-1/FLA-2 ratio (SH-SY5Y cells [5]) [fold] | MMP reduction (SH-SY5Y cells [6]) | Cell viability after H2O2 (neuroprotection) (SH-SY5Y cells [7]) | solubility at 2 h [8] [µg/mL] | Remaining Compound (%) 0 h ([9]; 0 h) [%] | Remaining Compound (%) 6 h ([9]; 6 h) [%] | Remaining Compound (%) 24 h ([9]; 24 h) [%] | Remaining Compound (%) 48 h ([9]; 48 h) [%] | IC50 [10] [µM] |
| --- | --- | --- | --- | --- | --- | --- | --- | --- | --- | --- | --- | --- | --- | --- | --- | --- | --- |
| O=C(/C=C(O)/C=C/c1ccc(O)c(F)c1F)c1ccccc1 [Compound 7a, (2Z,4E)-5-(2,3-Difluoro-4-hydroxyphenyl)-3-hydroxy-1-phenylpenta-2,4-dien-1-one] | 0.22 | 14.0 | 20.7 | 179.3 | 126 ± 8 | 79.6 ± 4.3 | 0.69 |  |  |  |  |  |  |  |  |  |  |
| OO [Compound H2O2, hydrogen peroxide, reference compound] |  |  |  |  |  |  |  | 200 | 2 | about 62% |  |  |  |  |  |  |  |
| COc1cc(/C=C/C(=O)CC(=O)/C=C/c2ccc(O)c(OC)c2)ccc1O [Curcumin, reference compound] |  |  |  |  | 48.8 ± 5.1 |  |  |  |  |  | slight protection | 24 ± 3 (≈ 65.1 µM) | 100 | 55.9 ± 10.6 | 42.9 ± 9.0 | 38.1 ± 7.4 |  |
| COc1cc(/C=C/C(O)=C/C(=O)c2ccccc2)ccc1O [Compound 1a, (2Z,4E)-3-Hydroxy-5-(4-hydroxy-3-methoxyphenyl)-1-phenylpenta-2,4-dien-1-one] | 0.59 | 32.2 | 55.7 | 159.9 | 104 ± 6.7 | 50.5 ± 2 | 0.88 |  |  |  |  |  |  |  |  |  | 42.3 ± 3.4 |
